Results on 9 molecules are retold here after paper PMC3780361 (Bioorganic & medicinal chemistry, 2013).

Values after ≈ are worked out from the molar mass of the structure shown.

Data set [1] deals with M. tb H37Rv. As to conditions: secondary-linked 1 vs tertiary-linked 2; cited from earlier work.
The test system of data set [2] is M. tb H37Rv. Description: M. tb MIC determination by microbroth dilution. The settings on record: Mycobacterium tuberculosis, 168 h, read-out: M. tb MIC. Format: cell-based.
Another data set concerns the target T1, recombinant human sEH (Homo sapiens, UniProt P34913).
T1 sequence (P34913 1-555): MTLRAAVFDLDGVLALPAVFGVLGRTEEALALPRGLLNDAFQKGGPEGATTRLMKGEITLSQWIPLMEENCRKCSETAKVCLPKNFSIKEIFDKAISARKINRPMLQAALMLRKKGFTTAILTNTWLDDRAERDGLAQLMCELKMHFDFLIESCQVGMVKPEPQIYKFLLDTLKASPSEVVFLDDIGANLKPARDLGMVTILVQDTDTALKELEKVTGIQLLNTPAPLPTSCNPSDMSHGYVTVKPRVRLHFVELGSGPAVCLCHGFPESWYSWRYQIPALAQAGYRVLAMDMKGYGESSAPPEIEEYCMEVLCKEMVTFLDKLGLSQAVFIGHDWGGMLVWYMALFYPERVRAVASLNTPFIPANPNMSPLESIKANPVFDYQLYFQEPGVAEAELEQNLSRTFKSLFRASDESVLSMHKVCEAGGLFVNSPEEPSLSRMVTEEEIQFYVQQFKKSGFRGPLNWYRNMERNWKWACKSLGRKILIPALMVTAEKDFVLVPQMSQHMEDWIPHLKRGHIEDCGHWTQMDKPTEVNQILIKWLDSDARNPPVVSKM
Description: Human soluble epoxide hydrolase assay. Format: biochemical.

A short description of another data set: physchem. The settings on record: pH 7.4.
The nature of a further data set: in vitro. The settings on record: monkey; for IC50 at 72 h: Cytotoxicity IC50.
Data set [3] in a line: Cytotoxicity determination. As to conditions: monkey, Cytotoxicity IC50, VERO cell line, MTT.
Data set [4] in a line: Permeability determination. As to conditions: PAMPA, pH 7.4. Background: In PAMPA a lipid-coated filter parts donor from acceptor wells.

What is called MIC is the least concentration at which growth counts as inhibited. By IC50 is commonly meant the concentration that inhibits the measured activity by half. The term solubility denotes how much of the substance goes into solution per volume. As a reminder, the Papp is the rate of passage across a membrane or cell layer, normalised by area and donor concentration.

Regarding `O=C(Nc1ccc(F)c(F)c1F)NC1C2CC3CC(C2)CC1C3` (stereo not drawn) [Compound 1], the “Fold more potent than 2 (anti-TB activity)” value with M. tb H37Rv [1] is given as 40 fold. Take `Nc1ccc(S(=O)(=O)c2ccc(NC(=O)NC34CC5CC(CC(C5)C3)C4)cc2)cc1` [Compound 13, 1-(1-adamantyl)-3-(4-((4-aminophenyl)sulfonyl)phenyl)urea]: the minimal inhibitory concentration (MIC) in the data set on M. tb H37Rv [2] came out at 6.25 µg/mL (≈ 14.7 µM). The IC50 at recombinant human sEH worked out at 0.7 nM. Also, the concentration in solution in “physchem” (solubility at 18 h) was 0.9 ± 0.1 µg/mL (≈ 2.11 µM). Moreover, in “in vitro”, the selectivity ratio at 72 h stood at 23 and the IC50 at 72 h was more than 100 µg/mL. In the data set “physchem”, `Cc1cc(NC(=O)NC23CC4CC(CC(C4)C2)C3)no1` [Compound 23, 1-(1-adamantyl)-3-(5-methylisoxazol-3-yl)urea] gave a solubility at 18 h of approximately 25 µg/mL (≈ 90.8 µM). The same measure, in the same setting: for `Cc1nnc(NC(=O)NC23CC4CC(CC(C4)C2)C3)o1` [Compound 36, 1-(1-adamantyl)-3-(5-methyl-1,3,4-oxadiazol-2-yl)urea] the value was approximately 10 µg/mL (≈ 36.2 µM); for `CC(C)c1nnc(NC(=O)NC23CC4CC(CC(C4)C2)C3)o1` [Compound 37, 1-(1-adamantyl)-3-(5-isopropyl-1,3,4-oxadiazol-2-yl)urea], approximately 10 µg/mL (≈ 32.9 µM). In the data set “physchem”, `Cc1cc(NC(=O)NC2C3CC4CC(C3)CC2C4)no1` (stereo not drawn) [Compound 47, 1-(2-adamantyl)-3-(5-methylisoxazol-3-yl)urea] returned a solubility at 18 h of approximately 25 µg/mL (≈ 90.8 µM). For the same molecule, in “in vitro”, the selectivity ratio at 72 h was more than 8 and the IC50 at 72 h is more than 48 µg/mL. In data set [3], `O=C(Nc1nnc(C2CC2)o1)NC1C2CC3CC(C2)CC1C3` (stereo not drawn) [Compound 50, 1-(2-adamantyl)-3-(5-cyclopropyl-1,3,4-oxadiazol-2-yl)urea] showed an IC50 at 72 h of more than 100 µg/mL.

For the molecule `CCn1nc(NC(=O)NC2C3CC4CC(C3)CC2C4)cc1C` (stereo not drawn) [Compound 52, 1-(2-adamantyl)-3-(1-ethyl-5-methylpyrazol-3-yl)urea], in data set [3], the IC50 at 72 h is more than 100 µg/mL. In the case of `CCCSc1ccc2nc(NC(=O)OC)[nH]c2c1` [albendazole], the Papp at 0.5 hr, 50 µM in data set [4] is approximately 441 ×10⁻⁶ cm/s.
